Reference: patent US6643591B1, “Use of computational and experimental data to model organic compound reactivity in cytochrome P450 mediated reactions and to optimize the design of pharmaceuticals” (University of Pittsburgh, priority 1998, dated 2003)
Like-named read-outs stand apart in the source and are kept apart here. Marks after values point to notes of the source that are not given here.

How the values were obtained:
[1] = target: T1, CYP2C9 (Homo sapiens, UniProt P11712); assay: in vitro
[2] = test system: multiple CYP isoforms; details: for P, calculated primary KIE, average / S, calculated secondary KIE, average: Avg over isoforms with unmasked KIE; for INTER KIE, average: Avg over isoforms with unmasked KIE (p-MA: 1A2, 2B1, 2B6, 2E1; o-MA: six isoforms; α-ClMpX: 1A2, 2B1, 2B6); for Intramolecular KIE, average: Avg over the CYP isoforms tested; for Intramolecular KIE, range of values: range over the CYP isoforms tested
[3] = target: T2, CYP2B1 (Rattus norvegicus, UniProt P00176); assay: in vitro
T2 sequence (P00176 1-491): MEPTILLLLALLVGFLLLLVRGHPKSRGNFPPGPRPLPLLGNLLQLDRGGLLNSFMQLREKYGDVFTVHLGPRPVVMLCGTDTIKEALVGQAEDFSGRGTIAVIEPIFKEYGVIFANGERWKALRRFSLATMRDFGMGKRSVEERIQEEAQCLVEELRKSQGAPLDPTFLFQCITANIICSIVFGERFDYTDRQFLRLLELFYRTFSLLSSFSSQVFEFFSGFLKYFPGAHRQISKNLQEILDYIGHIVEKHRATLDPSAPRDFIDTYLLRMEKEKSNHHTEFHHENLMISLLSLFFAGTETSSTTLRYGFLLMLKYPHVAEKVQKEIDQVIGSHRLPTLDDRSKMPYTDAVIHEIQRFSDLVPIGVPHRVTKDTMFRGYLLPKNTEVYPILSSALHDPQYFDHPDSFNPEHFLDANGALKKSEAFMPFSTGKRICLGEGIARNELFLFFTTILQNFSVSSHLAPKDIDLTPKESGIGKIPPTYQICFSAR

[4] = target: CYP4B1 (Oryctolagus cuniculus, UniProt P15128); assay: in vitro
Sequence of CYP4B1 (P15128 whole entry): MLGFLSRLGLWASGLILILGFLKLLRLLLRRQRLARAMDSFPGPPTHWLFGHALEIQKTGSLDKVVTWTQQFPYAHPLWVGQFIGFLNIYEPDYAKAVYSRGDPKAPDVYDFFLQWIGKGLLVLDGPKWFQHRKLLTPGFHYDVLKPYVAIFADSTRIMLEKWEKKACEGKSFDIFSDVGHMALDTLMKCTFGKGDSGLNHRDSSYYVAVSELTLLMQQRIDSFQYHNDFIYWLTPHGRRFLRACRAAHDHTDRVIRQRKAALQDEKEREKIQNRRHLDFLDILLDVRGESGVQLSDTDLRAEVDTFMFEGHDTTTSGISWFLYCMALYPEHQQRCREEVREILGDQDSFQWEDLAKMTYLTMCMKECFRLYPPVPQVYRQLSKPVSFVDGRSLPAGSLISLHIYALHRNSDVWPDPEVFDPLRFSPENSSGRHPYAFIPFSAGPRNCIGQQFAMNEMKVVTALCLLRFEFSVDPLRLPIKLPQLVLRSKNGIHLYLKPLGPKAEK

[5] = target: T3, CYP2B6 (Homo sapiens, UniProt P20813); details: human, pH 7.4
T3 sequence (P20813 1-491): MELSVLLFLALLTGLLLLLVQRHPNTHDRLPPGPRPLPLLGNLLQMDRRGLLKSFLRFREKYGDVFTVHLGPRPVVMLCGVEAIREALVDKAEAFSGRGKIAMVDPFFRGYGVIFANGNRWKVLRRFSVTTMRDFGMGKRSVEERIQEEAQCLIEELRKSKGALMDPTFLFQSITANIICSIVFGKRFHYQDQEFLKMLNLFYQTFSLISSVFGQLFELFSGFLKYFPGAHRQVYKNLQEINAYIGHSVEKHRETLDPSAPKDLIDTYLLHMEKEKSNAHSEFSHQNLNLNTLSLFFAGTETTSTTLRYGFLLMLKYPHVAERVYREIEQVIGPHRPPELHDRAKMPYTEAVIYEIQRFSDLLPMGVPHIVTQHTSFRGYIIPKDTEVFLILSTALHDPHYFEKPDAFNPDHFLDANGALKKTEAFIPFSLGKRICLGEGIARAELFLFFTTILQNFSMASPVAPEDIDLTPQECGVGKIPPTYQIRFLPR

[6] = target: CYP2E1 (Homo sapiens, UniProt P05181); details: pH 7.4
Sequence of CYP2E1 (P05181 whole entry): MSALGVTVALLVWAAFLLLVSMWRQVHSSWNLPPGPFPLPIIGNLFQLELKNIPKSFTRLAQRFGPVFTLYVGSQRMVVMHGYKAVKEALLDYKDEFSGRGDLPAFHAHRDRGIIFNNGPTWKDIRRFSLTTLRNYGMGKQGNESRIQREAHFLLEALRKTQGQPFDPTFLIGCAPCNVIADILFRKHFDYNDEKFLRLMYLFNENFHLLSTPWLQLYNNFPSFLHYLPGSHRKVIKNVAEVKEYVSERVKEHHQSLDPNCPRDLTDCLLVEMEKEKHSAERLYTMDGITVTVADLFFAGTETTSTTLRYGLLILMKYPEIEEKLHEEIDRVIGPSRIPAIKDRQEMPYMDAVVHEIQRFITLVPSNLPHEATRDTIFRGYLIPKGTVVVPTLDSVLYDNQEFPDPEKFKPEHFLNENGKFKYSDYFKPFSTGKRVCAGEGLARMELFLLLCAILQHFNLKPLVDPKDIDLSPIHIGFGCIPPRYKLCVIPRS

[7] = target: T4, CYP2C8 (Homo sapiens, UniProt P10632); assay: Regioselectivity and inter-/intramolecular KIE for 4-methylanisole (Table 15); type: in vitro ADME
T4 sequence (P10632 1-490): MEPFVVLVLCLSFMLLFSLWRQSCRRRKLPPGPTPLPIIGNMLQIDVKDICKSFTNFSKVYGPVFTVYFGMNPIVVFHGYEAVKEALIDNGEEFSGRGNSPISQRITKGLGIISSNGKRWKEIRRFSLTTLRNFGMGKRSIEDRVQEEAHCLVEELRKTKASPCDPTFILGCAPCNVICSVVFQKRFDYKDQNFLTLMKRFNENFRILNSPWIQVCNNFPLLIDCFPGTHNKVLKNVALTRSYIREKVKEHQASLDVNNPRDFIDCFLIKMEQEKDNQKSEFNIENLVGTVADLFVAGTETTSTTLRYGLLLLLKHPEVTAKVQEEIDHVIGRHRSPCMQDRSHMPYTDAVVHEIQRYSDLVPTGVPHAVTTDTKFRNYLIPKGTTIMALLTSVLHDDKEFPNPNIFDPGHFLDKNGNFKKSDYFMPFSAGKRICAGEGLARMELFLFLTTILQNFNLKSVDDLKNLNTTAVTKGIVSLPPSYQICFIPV

[8] = target: T3, CYP2B6; assay: as above; type: in vitro ADME
[9] = target: T1, CYP2C9; assay: as above; type: in vitro ADME
[10] = pH 7.4, Regioselectivity BzH:Arom
[11] = pH 7.4, Regioselectivity BzH:ODAlk

T1 sequence (P11712 whole entry, canonical isoform): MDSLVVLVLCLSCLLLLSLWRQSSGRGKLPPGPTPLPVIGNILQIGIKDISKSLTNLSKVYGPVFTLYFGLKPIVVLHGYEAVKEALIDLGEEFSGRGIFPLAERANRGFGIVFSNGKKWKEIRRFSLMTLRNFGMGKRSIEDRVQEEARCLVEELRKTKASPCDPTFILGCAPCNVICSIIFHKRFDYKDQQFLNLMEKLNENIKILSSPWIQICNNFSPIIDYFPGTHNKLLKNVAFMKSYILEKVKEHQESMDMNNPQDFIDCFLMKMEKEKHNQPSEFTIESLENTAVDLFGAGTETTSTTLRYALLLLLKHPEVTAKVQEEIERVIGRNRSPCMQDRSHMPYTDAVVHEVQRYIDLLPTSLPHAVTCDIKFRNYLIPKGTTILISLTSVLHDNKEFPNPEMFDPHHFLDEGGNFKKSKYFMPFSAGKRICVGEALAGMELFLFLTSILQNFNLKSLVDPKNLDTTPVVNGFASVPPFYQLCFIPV

## COc1ccccc1C [o-Methylanisole, o-methylanisole]
[1]; [10]
  selectivity ratio: 1.6
[1]; [11]
  selectivity ratio: 2.5
[2]
  ΔΔG^‡ corresponding to regioselectivity BzH:ODAlk: 0.1-0.65
  P, calculated primary KIE, average: 8
  S, calculated secondary KIE, average: 1.2
  INTER KIE, average: 11
  Intramolecular KIE, average: 6.2
  Intramolecular KIE, range of values: 5.7-6.9
[2]; 20 min, […], pH 7.4
  Ring hydroxylation products, share of total products: 30-60%
[2]; listed as o-MA
  INTER KIE, average: 11±3
  P, calculated primary KIE, average: 8±3
  S, calculated secondary KIE, average: 1.2±0.4
  Intramolecular KIE, average: 6.2±0.6
[2]; range over the isoforms
  P (primary KIE), range: 6.7-8.9
  S (secondary KIE), range: 1.15-1.29
[2]; range over the isoforms, listed as o-MA
  Regioselectivity BzH:ODAlk, range: 1.2-2.9
[3]; [10]
  selectivity ratio: 0.31
[3]; [11]
  selectivity ratio: 1.2
[4]; [10]
  selectivity ratio: 22
[4]; [11]
  selectivity ratio: 0.7
[5]
  INTER KIE (combined intermolecular competitive KIE): 10.43
  Intramolecular KIE (kH/kD): 6.78
  Metabolite profile, o-CR: 56 Mol-%
  Metabolite profile, o-MBA: 29 Mol-%
  P, calculated primary KIE: 7.8
  Ratio ODAlk:Arom: 0.3
  S, calculated secondary KIE: 1.15
  nmol 4M3MPh: 2.8 nmol
  nmol TP: 19 nmol
  nmol o-CR: 10.7* nmol
  nmol o-MBA: 5.5* nmol
[6]
  INTER KIE (combined intermolecular competitive KIE): 10
  Intramolecular KIE (kH/kD): 5.95
  Metabolite profile, Phenol: 57 Mol-%
  Metabolite profile, o-CR: 16 Mol-%
  Metabolite profile, o-MBA: 27 Mol-%
  P, calculated primary KIE: 7.1
  Ratio of ring hydroxylation para to the methoxy group to ODAlk: 3.5
  S, calculated secondary KIE: 1.19
  nmol 4M3MPh: 13* nmol
  nmol TP: 23* nmol
  nmol o-CR: 3.8* nmol
  nmol o-MBA: 6.1* nmol

## COc1ccc(C)cc1 [p-Methylanisole, p-methylanisole]
[2]
  P, calculated primary KIE, average: 5
  S, calculated secondary KIE, average: 1.2
  INTER KIE, average: 6
  Intramolecular KIE, average: 4.4
  Intramolecular KIE, range of values: 3.69-6.08
[2]; listed as p-MA
  INTER KIE, average: 6±1
  P, calculated primary KIE, average: 5±1
  S, calculated secondary KIE, average: 1.15±0.22
  Intramolecular KIE, average: 4.4±0.3
[2]; range over the isoforms
  Combined intermolecular competitive KIE, range: 5.9-6.8
  P (primary KIE), range: 4.3-5.0
  S (secondary KIE), range: 1.08-1.22
[7]; CYP2C8 (Table 15)
  Intermolecular KIE: 3.60
  Intramolecular KIE: 3.60
[7]; CYP2C8, benzylic oxidation vs O-dealkylation
  δΔG^†: 1.32 kcal/mol
[8]; CYP2B6 (Table 15)
  Intermolecular KIE: 7.60
  Intramolecular KIE: 4.58
[8]; CYP2B6, benzylic oxidation vs O-dealkylation
  δΔG^†: 0.86 kcal/mol
[5]
  INTER KIE (combined intermolecular competitive KIE): 6.8
  Intramolecular KIE (kH/kD): 3.74
  P, calculated primary KIE: 4.6
  S, calculated secondary KIE: 1.22
  nmol p-CR: 2.10* nmol
  nmol p-MBA: 7.0* nmol
  nmol total TP: 9.1 nmol
[6]
  INTER KIE (combined intermolecular competitive KIE): 6.6
  Intermolecular Competitive ^D(V/K): 2.57 ± 0.02
  Intermolecular Noncompetitive ^D(V/K): 2.60 ± 0.01
  Intermolecular Noncompetitive ^DV: 2.28 ± 0.10
  P, calculated primary KIE: 4.9
  S, calculated secondary KIE: 1.16
  nmol p-CR: 5.6* nmol
  nmol p-MBA: 23.8* nmol
  nmol total TP: 29.4 nmol
[9]; CYP2C9 (Table 15)
  Intermolecular KIE: 3.52
  Intramolecular KIE: 3.92
[9]; CYP2C9, benzylic oxidation vs O-dealkylation
  δΔG^†: 1.87 kcal/mol
